Reference: patent US6160008A, “Pharmaceutical compositions comprising S-alkylisothiouronium derivatives” (priority 1996, dated 2000)
“Also recorded” adds a separate entry of the source. Like-named read-outs stand apart in the source and are kept apart here.

Assays:
[1] = test system: acute arterial hypotension, caused by prazosin; experiment: Acute arterial hypotension caused by prazosin (Table 3); type: in vivo, cats; details: for AP / HF / Respiratory contraction frequency: 5 mg/kg i.v. after prazosin 1 mg/kg
Procedure: It was of interest to study the influence of S-ethylisothiouronium diethylphosphate the in case of hypotension caused by the injection of a known α1-adreno blocker, namely prazosin. Prazosin was injected singly intravenously at a dose of 1 mg/kg.

[2] = test system: acute arterial hypotension, caused by the hexamethonium administration; experiment: Acute arterial hypotension caused by hexamethonium (Table 5); type: in vivo, cats; details: for AP / HF: 5 mg/kg i.v. after hexamethonium 10 mg/kg
Procedure: The influence of S-ethylisothiouronium diethylphosphate on the background of arterial hypotension caused by a known ganglion blocker-hexamethonium has been studied in cats. Hexamethonium was injected intra- venously at a dose of 10 mg/kg. Vagus and schiatic nerve stimulation was carried out by electrical pulsator with the above-threshold rectangular pulse current having a duration of 1 msec, irritation time of 10 sec, and frequency of 20 pulses/sec (peripheral section of the vagus nerve), and frequency of 300 pulses/sec (central end of the schiatic nerve).

[3] = Biochemical indices of mice blood serum, chronic experiment (Table 9); type: in vivo, F1 (C57B1×CBA); details: for Body mass / Glucose / Total cholestrol / Total protein: 100 mg/kg i.v.; for Total protein: in g/L (unit assumed)
Procedure: The effect of S-ethylisothiouronium diethylphosphate on body constituents was estimated in chronic and acute experiments. These experiments were conducted on F1 (C57B1×CBA) line mice and biochemical tests were made after a single administration of S-ethylisothiouronium diethylphosphate, injected intravenously at doses of 100 mg/kg (in the chronic experiment) and 500 mg/kg (in the acute experiment).
In the acute experiment, blood was taken 30, 60 and 75 minutes after the administration of the medicine. In the chronic experiment (which lasted 30 days), blood was daily examined 1 hour after the injection. Terms of the study were 1, 7, 14, and 21 days. The concentrations of total protein, total cholesterol, and glucose in mice blood serum were determined by conventional methods. Total protein was determined by a biuret method, total cholesterol--by like method, glucose--by the glucose-oxidase method.
Mouse blood was obtained after rapid decapitation. Tested material was sampled at the same time of the day and on the same season.
Blood for serum was sampled into centrifuge test tubes, put into the thermostat for 30-40 minutes; the clot was outlined by a needle, then it was put into a refrigerator for 1 hour+4° C. After cooling it was centrifuged at 3000 RPM during 10-15 minutes. Serum with no signs of hemolysis was sampled into a clean tube. All quantitative indices of the blood biochemical characteristics were obtained by spectrophotometric measurements. Calibration curves to determine total protein and cholesterol were constructed in advance.

[4] = Lung coefficient under hyperbaric oxygen (3 atm); type: in vivo, mice and rats; details: for Lung coefficient (lung mass/body mass X100): hyperbaric oxygen
Procedure: Animals were exposed to oxygen under increased pressure in a hyperbaric chamber <<Mana-2≤≤ for treatment of infants above 1 year, which was adjusted for the experiments on animals. The hyperbaric chamber design permitted to create excessive pressure up to 3 atm and to observe animal behavior from outside.
The experiments were performed on males of F1 (CBAx57B1) mice line and on males of Wistar rat line. Animals were placed in the hyperbaric chamber in plastic boxes and the atmospheric air was replaced by oxygen. The period of compression-decompression was 10 minutes. The exposure of the animals to an oxygen pressure of 3 atm during a period of 2 hours caused only some increase in their motion activity. Further staying of rats and mice in those conditions led to a decrease in the motion activity, to asphyxia with short periods of excitement and cramps. The death of some animals was registered after 2.5-3 hours, 50% after 4 hours, and 75% of mice and 100% of rats were dead after 5 hours.
When the influence of Difetur and Etyron was studied, the animals were exposed to an oxygen pressure of 3 atm during 5 hours if not otherwise specified. Preparations were injected 5-10 minutes before the session.
After the session the dead animals were autopsied, their lungs were removed, and the index <<lung mass in gr./body mass in gr. X100>> (i.e. lung coefficient) was defined.

arterial blood pressure = experiment: Clinical testing under spinal epidural anesthesia; type: in vivo, patients; details: urological operations
Procedure: This experiment was conducted at the General Anesthesia Department of the First Republican Hospital of Moldova. The goal of this clinical study was to estimate the ability of Difetur to act as a hypertensive drug, compared to the known adrenergic drug--ephedrine. The experiments were performed on one hundred patients, underwent urological operations under spinal epidural anesthesia, their age being between 20 and 80. The following findings are presented in view of Difetur: […]

[5] = in vivo, cited from earlier work

In the case of `CCSC(=N)N` [S-ethylisothiouronium diethylphosphate], the AP ([1]; 2 min) is reported as 135.0 ± 5.6 mm Hg, the HF ([1]; 2 min) is reported as 152.4 ± 9.4 per min and the Respiratory contraction frequency ([1]; 2 min) is reported as 14.6 ± 3.9 min⁻¹. It also gave an AP ([1]; 15 min) of 118.8 ± 10.3 mm Hg, an HF ([1]; 15 min) of 146.4 ± 5.6 per min and a Respiratory contraction frequency ([1]; 15 min) of 12.4 ± 3.0 min⁻¹. For the same compound, the AP ([1]; 30 min) was 116.3 ± 4.8 mm Hg, the HF ([1]; 30 min) was 144.0 ± 5.0 per min and the Respiratory contraction frequency ([1]; 30 min) was 11.8 ± 2.3 min⁻¹. The AP ([1]; 60 min) was 110.0 ± 7.4 mm Hg, the HF ([1]; 60 min) was 135.6 ± 7.0 per min and the Respiratory contraction frequency ([1]; 60 min) was 11.0 ± 1.0 min⁻¹. For the same compound, the AP increase ([1]; 5 mg/kg i.v. after prazosin, 2nd minute) was 29 mm Hg, the “AP above the level on the 5th minute after blocker” value ([1]; 5 mg/kg i.v. after prazosin, 15th minute) was 11.8% and the “AP above the level on the 5th minute after blocker” value ([1]; 5 mg/kg i.v. after prazosin, 30th minute) was 9.4%. For the same compound, the “Effect under α1-adreno blockade in words” value ([1]; after prazosin) was “Statistically significant changes of HR and respiratory movement frequency were not observed; also recorded: increases AP also on the background of α1-adreno blockers though with a lower duration than without them; also recorded: retain its activity in conditions of alpha-adrenergic blockade”, the AP ([2]; 2 min) was 152.0 ± 4.6 mm Hg and the HF ([2]; 2 min) was 120.0 ± 12.0 per min. It also gave an AP ([2]; 15 min) of 147.0 ± 7.8 mm Hg, an HF ([2]; 15 min) of 105.6 ± 11.6 per min and an AP ([2]; 30 min) of 146.8 ± 4.8 mm Hg. The HF ([2]; 30 min) was 109.2 ± 11.1 per min, the AP ([2]; 60 min) was 143.0 ± 7.2 mm Hg and the HF ([2]; 60 min) was 108.0 ± 15.8 per min. The AP increase ([2]; 5 mg/kg i.v. after hexamethonium, 2nd minute) was 61 mm Hg, the “Effect under ganglion blockade in words” value ([2]; after hexamethonium) was “Respiratory rate did not change; also recorded: HR changed to the direction of bradycardia, however, those changes were not statistically significant; also recorded: ganglion blocking properties are completely retained; also recorded: quickly restores the AP level after the ganglion blocker caused hypotension and maintains it for a long time” and the Body mass ([3]; 1st day) was 23.8 ± 0.1 g. For the same compound, the Glucose ([3]; 1st day) was 7.1 ± 1.4 mmol/L, the Total cholestrol ([3]; 1st day) was 4.7 ± 0.9 mmol/L and the Total protein ([3]; 1st day) was 75.6 ± 4.9. The Body mass ([3]; 7th day) was 24.0 ± 0.2 g, the Glucose ([3]; 7th day) was 8.2 ± 1.8 mmol/L and the Total cholestrol ([3]; 7th day) was 5.0 ± 0.6 mmol/L. It also gave a Total protein ([3]; 7th day) of 63.5 ± 4.4, a Body mass ([3]; 14th day) of 28.1 ± 0.3 g and a Glucose ([3]; 14th day) of 8.8 ± 1.7 mmol/L. For the same compound, the Total cholestrol ([3]; 14th day) was 3.0 ± 0.36 mmol/L, the Total protein ([3]; 14th day) was 72.4 ± 3.3 and the Body mass ([3]; 21st day) was 26.1 ± 0.5 g. It also gave a Glucose ([3]; 21st day) of 9.9 ± 1.8 mmol/L, a Total cholestrol ([3]; 21st day) of 4.9 ± 0.42 mmol/L and a Total protein ([3]; 21st day) of 74.9 ± 2.4. For the same compound, the “Serum biochemistry in words” value ([3]; 100 mg/kg, chronic experiment) was “fluctuations of the studied parameters do not exceed the limits of physiological fluctuations”, the “Lung coefficient (lung mass/body mass X100)” value ([4]; 5 mg/kg) was 0.95±0.09 and the “Lung coefficient (lung mass/body mass X100)” value ([4]; 10 mg/kg) was 0.97±0.09. The “Lung coefficient (lung mass/body mass X100)” value ([4]; 20 mg/kg) was 0.88±0.08, the “Lung protection in words” value ([4]; in vivo) was “considerable protective efficiency regarding the lung tissue” and the “Duration of hypertensive action” value (arterial blood pressure) was 40 to 60 min. The “Time until blood pressure attains the initial value” (arterial blood pressure) was ≤ 90 min, the Clinical safety findings (arterial blood pressure; listed as Difetur) was “No cases of secondary hypertension were observed; also recorded: No complications of allergic type of the blood circulation or respiration were observed” and the “Effect on patient's blood pressure in words” value (arterial blood pressure; listed as Difetur) was “prevented the decrease in the patient's blood pressure; also recorded: blood pressure of the patients remained stable; also recorded: rapid and prolonged effect on arterial blood pressure”. The “Radioprotective effect in words” value [5] was “radioprotective effect” and the “Radioprotective effect in words” value ([5]; listed as Difetur) was “distinct radioprotective effect”.
